Where two headings read alike, the source gives them in different places.
Assays:
homomeric α9 receptors = target: T1, homomeric α9 receptors (Homo sapiens, UniProt Q9UGM1); type: cell-based
T1 construct: expressed in transfected cells; host or cells: Xenopus laevis oocytes (cDNA injection)

[1] = target: T2, Heteromeric α9-HNARA10 receptors (Homo sapiens, UniProt Q9GZZ6+Q9UGM1); test: ACh-evoked currents in Xenopus laevis oocytes injected with human α9 and HNARA10 cDNAs; type: cell-based; conditions: for antagonism of ACh responses: α9+HNARA10 receptors
T2 construct: expressed in transfected cells; host or cells: Xenopus laevis oocytes (nuclear injection of cDNA)

[2] = target: human nicotinic acetylcholine receptor α9 subunit (homomeric α9 receptors) (human) (UniProt Q9UGM1); test: cell-based or functional assay
Chain of human nicotinic acetylcholine receptor α9 subunit (homomeric α9 receptors) (human) (Q9UGM1 23-479): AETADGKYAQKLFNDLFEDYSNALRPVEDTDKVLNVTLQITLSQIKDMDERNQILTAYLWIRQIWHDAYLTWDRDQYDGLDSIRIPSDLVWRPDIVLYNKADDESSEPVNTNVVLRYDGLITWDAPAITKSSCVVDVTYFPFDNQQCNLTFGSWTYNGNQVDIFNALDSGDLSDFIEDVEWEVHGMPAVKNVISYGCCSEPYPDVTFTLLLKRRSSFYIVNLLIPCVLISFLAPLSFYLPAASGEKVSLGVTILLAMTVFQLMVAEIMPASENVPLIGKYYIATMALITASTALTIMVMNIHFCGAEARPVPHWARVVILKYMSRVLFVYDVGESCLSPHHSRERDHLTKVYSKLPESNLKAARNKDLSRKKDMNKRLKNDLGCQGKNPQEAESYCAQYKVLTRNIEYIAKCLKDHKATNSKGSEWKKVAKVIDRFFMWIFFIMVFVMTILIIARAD

T1 sequence (Q9UGM1 23-479): as above
T2 sequence (Q9UGM1 23-479): as above
T2 sequence (Q9GZZ6 25-450): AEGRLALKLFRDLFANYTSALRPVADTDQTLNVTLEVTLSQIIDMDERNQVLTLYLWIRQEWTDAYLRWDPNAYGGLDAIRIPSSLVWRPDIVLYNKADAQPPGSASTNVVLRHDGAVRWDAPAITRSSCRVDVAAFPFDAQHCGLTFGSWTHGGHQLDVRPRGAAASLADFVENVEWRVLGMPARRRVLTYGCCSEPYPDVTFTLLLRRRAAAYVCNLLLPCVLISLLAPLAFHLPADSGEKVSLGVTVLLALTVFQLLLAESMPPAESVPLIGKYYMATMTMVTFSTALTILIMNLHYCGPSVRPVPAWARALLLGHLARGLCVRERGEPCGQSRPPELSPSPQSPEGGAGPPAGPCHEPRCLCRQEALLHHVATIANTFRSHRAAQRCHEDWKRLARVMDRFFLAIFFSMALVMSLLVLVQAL

C[N+]1(C)CCN(c2ccccc2)CC1 [DMPP]
agonist response (homomeric α9 receptors): did not elicit any response | agonist response [1]: did not elicit any response

C[N+](C)(C)CCOC(N)=O [carbachol]
evoked current (partial agonist) ([1]; oocytes expressing the mixture α9-HNARA10, from dose-response curves): about 72%

COc1cc2c3cc1Oc1cc(ccc1O)C[C@@H]1c4c(cc(OC)c(O)c4Oc4ccc(cc4)C[C@@H]3N(C)CC2)CC[N+]1(C)C [d-tubocurarine]
antagonism of ACh responses (homomeric α9 receptors; α9 receptors): fully antagonized | antagonism of ACh responses [1]: fully antagonized

CO[C@H]1CC=C2CCN3CCC4=C(CC(=O)OC4)[C@]23C1 [dihydro-β-erythroidine]
antagonism of ACh responses [1]: did not have any effect

Clc1ccc(C2CC3CCC2N3)cn1 (centres unmarked) [epibatidine]
agonist response (homomeric α9 receptors; α9 expressing oocytes): did not elicit any response | agonist response ([1]; α9+HNARA10 expressing oocytes): did not elicit any response

CN1CCCC1c1cccnc1 (centres unmarked) [nicotine]
agonist response (homomeric α9 receptors): did not elicit any response | agonist response [1]: did not elicit any response

HNARA10 polypeptide (human nicotinic acetylcholine receptor alpha 10 subunit)
amplitude of acetylcholine-evoked currents in Xenopus oocytes, α9-HNARA10 mixture against α9 alone [2]: 100 fold

— EP1222265B1, “NOVEL NICOTINIC ACETYLCHOLINE RECEPTOR SUBUNIT, ITS ISOLATION AND USE” (Sanofi-Aventis, priority 1999, dated 2001)
